Data taken from patent publication US20250144067A1, “PERSONALIZED STARVATION THERAPY FOR CANCER” (Faeth Therapeutics, Inc., priority 2021, published 2025).
Counter-ions that a name gives are not always drawn. Like-named read-outs stand apart in the source and are kept apart here.

Columns and labels:
[1] = test system: NCI-H292 lung cancer cells; test: FDA drug screening, complete media vs cholesterol-free media without statin (TABLE 1); format: cell-based, human
[2] = test system: NCI-H292 lung cancer cells; test: FDA drug screening, complete media vs cholesterol-free media with simvastatin (TABLE 2); format: cell-based, human
[3] = Complete minus Cholesterol-free, >0 enhanced anti-cancer activity, about 0 neutral, <0 antagonist
[4] = NCI-H292 cells, cholesterol-free media without statin, FDA drug library screen
[5] = NCI-H292 cells, complete media, FDA drug library screen
[6] = NCI-H292 cells, FDA drug library screen, cholesterol-free media with simvastatin 0.04 μM
[7] = NCI-H292 cells, FDA drug library screen, complete media
[8] = complete media minus cholesterol-free media + simvastatin, >0 enhanced anti-cancer activity, about 0 neutral, <0 antagonist
[9] = complete vs cholesterol-free media, >0 enhanced anti-cancer activity, about 0 neutral, <0 antagonist
[10] = complete media vs cholesterol-free media + simvastatin (0.04 μM), >0 enhanced anti-cancer activity, about 0 neutral, <0 antagonist
[11] = NCI-H292 cells, cholesterol-free media without statin
[12] = complete vs cholesterol-free media, greater than 0 enhanced anti-cancer activity, about 0 neutral, below 0 antagonists
[13] = NCI-H292 cells, drug in cholesterol-free media with simvastatin 0.04 μM
[14] = NCI-H292 cells, drug in complete media
[15] = NCI-H292 cells, cholesterol-free media with simvastatin 0.04 μM, cell growth value in FDA drug screen
[16] = NCI-H292 cells, complete media, cell growth value in FDA drug screen
[17] = NCI-H292 cells, FDA library drug in cholesterol-free media with simvastatin 0.04 μM
[18] = NCI-H292 cells, FDA library drug in complete media
[19] = Complete minus Cholesterol-free, […]

| Compound | Difference [1, 3] | Cholesterol-free [1, 4] | Complete [1, 5] | Cholesterol-free media + simvastatin (0.04 μM) [2, 6] | Complete Media [2, 7] | Difference [2, 8] | Difference [2, 10] | Cholesterol-free [1, 11] | Complete ([1]; NCI-H292 cells, complete media) | also measured |
| --- | --- | --- | --- | --- | --- | --- | --- | --- | --- | --- |
| Nc1nc2ccc(OC(F)(F)F)cc2s1 [Riluzole] | 0.02 | 1.015 | 1.033 | 0.9966 | 1.259 | 0.26 |  |  |  |  |
| CC(N)C12CC3CC(CC(C3)C1)C2 (centres unmarked) [Rimantadine (hydrochloride)] |  | 0.8509 | 1.649 | 0.9474 | 0.8656 |  | −0.08 |  |  | Difference [1, 9]: 0.80 |
| N[C@@H]1c2cccnc2[C@H](OC(=O)N2CCC(n3c(=O)[nH]c4ncccc43)CC2)CC[C@H]1c1cccc(F)c1F [Rimegepant] |  |  |  |  |  |  | −0.20 | 1.457 | 0.9844 | Difference [1, 12]: −0.47; Cholesterol-free media + simvastatin (0.04 μM) [2, 13]: 1.311; Complete Media [2, 14]: 1.114 |
| Cc1c(C(=O)NN2CCCCC2)nn(-c2ccc(Cl)cc2Cl)c1-c1ccc(Cl)cc1 [Rimonabant (Hydrochloride)] |  |  |  |  |  | 0.02 |  | 1.291 | 0.882 | Difference [1, 12]: −0.41; Cholesterol-free media + simvastatin (0.04 μM) [2, 15]: 0.8204; Complete Media [2, 16]: 0.8385 |
| COC(=O)N(C)c1c(N)nc(-c2nn(Cc3ccccc3F)c3ncccc23)nc1N [Riociguat] | −0.22 |  |  |  |  | 0.08 |  | 0.9238 | 0.7003 | Cholesterol-free media + simvastatin (0.04 μM) [2, 15]: 1.101; Complete Media [2, 16]: 1.185 |
| C[C@H]1CNCCCN1S(=O)(=O)c1cccc2cncc(F)c12 [Ripasudil] |  | 0.6571 | 0.9065 |  |  |  | −0.21 |  |  | Difference [1, 9]: 0.25; Cholesterol-free media + simvastatin (0.04 μM) [2, 13]: 1.388; Complete Media [2, 14]: 1.177 |
| O=P(O)(O)C(O)(Cc1cccnc1)P(=O)(O)O [Risedronate (sodium)] | −0.30 |  |  |  |  | 0.11 |  | 1.022 | 0.7264 | Cholesterol-free media + simvastatin (0.04 μM) [2, 15]: 0.8847; Complete Media [2, 16]: 0.9961 |
| Cc1nc2n(c(=O)c1CCN1CCC(c3noc4cc(F)ccc34)CC1)CCCC2 [Risperidone] |  |  |  |  |  |  |  |  |  | Cholesterol-free [1]: 1.099; Complete [1]: 0.9616; Difference [1]: −0.14; Cholesterol-free media + simvastatin (0.04 μM) [2]: 0.9957; Difference [2]: 0.16 |
| CC(NCCc1ccc(O)cc1)C(O)c1ccc(O)cc1 (centres unmarked) [Ritodrine (hydrochloride)] |  |  |  | 1.064 | 0.9618 |  | −0.10 | 1.435 | 0.972 | Difference [1, 12]: −0.46 |
| CC(C)c1nc(CN(C)C(=O)N[C@H](C(=O)N[C@@H](Cc2ccccc2)C[C@H](O)[C@H](Cc2ccccc2)NC(=O)OCc2cncs2)C(C)C)cs1 [Ritonavir] | −0.25 |  |  |  |  |  | −0.31 | 1.533 | 1.287 | Cholesterol-free media + simvastatin (0.04 μM) [2, 17]: 1.133; Complete Media [2, 18]: 0.8233 |
| O=C(NC[C@H]1CN(c2ccc(N3CCOCC3=O)cc2)C(=O)O1)c1ccc(Cl)s1 [Rivaroxaban] | −0.30 |  |  | 1.199 | 1.057 |  | −0.14 | 1.076 | 0.7773 |  |
| CCN(C)C(=O)Oc1cccc([C@H](C)N(C)C)c1 [Rivastigmine] |  |  |  |  |  |  |  |  |  | Difference [1, 19]: −0.61; Cholesterol-free ([1]; NCI-H292 cells in cholesterol-free media without statin): 1.742; Complete ([1]; NCI-H292 cells in complete media): 1.133; Cholesterol-free media + simvastatin (0.04 μM) ([2]; NCI-H292 cells, cholesterol-free media with simvastatin 0.04 μM, […]): 1.229; Complete Media ([2]; NCI-H292 cells, complete media, […]): 1.345; Difference ([2]; complete media minus cholesterol-free media + simvastatin, […]): 0.12 |
| CN(C)CCc1c[nH]c2ccc(Cn3cncn3)cc12.O=C(O)c1ccccc1 [Rizatriptan (benzoate)] |  | 0.4266 | 0.447 | 1.054 | 0.9799 |  |  |  |  | Difference [1, 19]: 0.02; Difference ([2]; complete media vs cholesterol-free media + simvastatin (0.04 μM), […]): −0.07 |
| C=CC[N+]1([C@H]2C[C@H]3[C@@H]4CC[C@H]5C[C@H](O)[C@@H](N6CCOCC6)C[C@]5(C)[C@H]4CC[C@]3(C)[C@H]2OC(C)=O)CCCC1.[Br-] [Rocuronium (Bromide)] |  |  |  |  |  |  |  |  |  | Cholesterol-free [1]: 0.9624; Complete [1]: 0.9092; Difference [1]: −0.05; Cholesterol-free media + simvastatin (0.04 μM) [2]: 0.8493; Complete Media [2]: 1.097; Difference [2]: 0.25 |
| CS(=O)(=O)c1ccc(C2=C(c3ccccc3)C(=O)OC2)cc1 [Rofecoxib] |  | 1.041 |  | 1.252 |  |  | −0.11 |  |  | Difference [1, 9]: 0.11 |
| O=C(Nc1c(Cl)cncc1Cl)c1ccc(OC(F)F)c(OCC2CC2)c1 [Roflumilast] | −0.06 | 0.9495 | 0.8928 |  |  |  | −0.71 |  |  | Cholesterol-free media + simvastatin (0.04 μM) [2, 17]: 1.607; Complete Media [2, 18]: 0.8972 |
| C[C@@H](OC[C@@]1(c2ccccc2)CC[C@]2(CCC(=O)N2)CN1)c1cc(C(F)(F)F)cc(C(F)(F)F)c1 [Rolapitant] | −0.04 | 0.9892 | 0.9523 | 1.001 | 0.9304 |  | −0.07 |  |  |  |
| Cn1c([N+](=O)[O-])cnc1COC(N)=O [Ronidazole] |  |  |  | 0.9748 | 1.335 | 0.36 |  | 1.54 | 1.069 | Difference [1, 12]: −0.47 |
| CCCN(CCC)CCc1cccc2c1CC(=O)N2 [Ropinirole (hydrochloride)] |  |  |  | 0.879 | 1.185 | 0.31 |  | 1.101 | 0.7874 | Difference [1, 12]: −0.31 |
| CCCN1CCCC[C@H]1C(=O)Nc1c(C)cccc1C [Ropivacaine (hydrochloride monohydrate)] |  |  |  |  |  | 0.05 |  | 0.9717 | 0.6061 | Difference [1, 12]: −0.37; Cholesterol-free media + simvastatin (0.04 μM) [2, 15]: 1.378; Complete Media [2, 16]: 1.433 |
| CCCN1CCCC[C@H]1C(=O)Nc1c(C)cccc1C [Ropivacaine (hydrochloride)] | 0.07 | 1.2 | 1.265 |  |  |  | −0.20 |  |  | Cholesterol-free media + simvastatin (0.04 μM) [2, 13]: 1.189; Complete Media [2, 14]: 0.9899 |
| CCCN1CCCC[C@H]1C(=O)Nc1c(C)cccc1C.CS(=O)(=O)O [Ropivacaine (mesylate)] |  |  |  | 0.9302 |  | 0.22 |  | 1.155 | 0.7954 | Difference [1, 12]: −0.36 |
| CCCN1CCCC[C@H]1C(=O)Nc1c(C)cccc1C [Ropivacaine] | −0.20 |  |  |  |  |  | −0.18 | 1.098 | 0.8949 | Cholesterol-free media + simvastatin (0.04 μM) [2, 13]: 0.9386; Complete Media [2, 14]: 0.7628 |
| CN(CCOc1ccc(CC2SC(=O)NC2=O)cc1)c1ccccn1.O=C(O)/C=C\C(=O)O (centres unmarked) [Rosiglitazone (maleate)] |  | 1.107 | 1.422 |  |  | 0.05 |  |  |  | Difference [1, 9]: 0.32; Cholesterol-free media + simvastatin (0.04 μM) [2, 15]: 0.848; Complete Media [2, 16]: 0.8943 |
| CN(CCOc1ccc(CC2SC(=O)NC2=O)cc1)c1ccccn1 (centres unmarked) [Rosiglitazone] | −0.21 |  |  | 1.707 | 1.955 | 0.25 |  | 1.222 | 1.017 |  |
| CC(C)c1nc(N(C)S(C)(=O)=O)nc(-c2ccc(F)cc2)c1/C=C/[C@@H](O)C[C@@H](O)CC(=O)O [Rosuvastatin (Calcium)] | −0.24 |  |  |  |  | 0.08 |  | 1.156 | 0.9201 | Cholesterol-free media + simvastatin (0.04 μM) [2, 15]: 0.9188; Complete Media [2, 16]: 1.001 |
| CCCN(CCc1cccs1)[C@H]1CCc2c(O)cccc2C1 [Rotigotine (Hydrochloride)] |  |  |  | 0.8026 | 0.6752 |  | −0.13 |  |  | Difference ([1]; Complete minus Cholesterol-free, greater than 0 enhanced anti-cancer activity, about 0 neutral, below 0 antagonist): −0.08; Cholesterol-free ([1]; NCI-H292 cells, FDA drug library screen, cholesterol-free media without statin): 0.8788; Complete [1, 7]: 0.7943 |
| CCCN(CCc1cccs1)[C@H]1CCc2c(O)cccc2C1 [Rotigotine] | 0.07 | 0.9004 | 0.9685 |  |  |  |  |  |  | Cholesterol-free media + simvastatin (0.04 μM) ([2]; NCI-H292 cells, cholesterol-free media with simvastatin 0.04 μM, FDA drug library screen (TABLE 2)): 1.128; Complete Media ([2]; NCI-H292 cells, complete media, FDA drug library screen (TABLE 2)): 1.07; Difference ([2]; complete media minus cholesterol-free media + simvastatin (0.04 μM), >0 enhanced anti-cancer activity, about 0 neutral, <0 antagonist): −0.06 |
| COc1cc2c(cc1OC)[C@@H]1Cc3ccc(OC)c(OC)c3CN1CC2 [Rotundine] | −0.21 |  |  |  |  |  | −0.27 | 1.07 | 0.8588 | Cholesterol-free media + simvastatin (0.04 μM) [2, 17]: 1.094; Complete Media [2, 18]: 0.8277 |
